ChEMBL document CHEMBL3045182, “Synthesis and biological evaluation of some stilbene-based analogues” (Med Chem Res, 2011)
The source made the active and inactive calls. No cut-off for these calls is given here.

Tests used:
[1] = test system: Radical scavenging activity; test: Antioxidant activity assessed as DPPH radical scavenging activity at 1000 ug/ml; assay type: functional
[2] = test system: Radical scavenging activity; test: Antioxidant activity assessed as DPPH radical scavenging activity at 500 ug/ml; assay type: functional
[3] = test system: Aspergillus niger; test: Antifungal activity against Aspergillus niger by poison plate assay method; assay type: functional, organism-based
[4] = test system: Penicillium chrysogenum; test: Antifungal activity against Penicillium chrysogenum by poison plate assay method; assay type: functional, organism-based
[5] = test system: Radical scavenging activity; test: Antioxidant activity assessed as DPPH radical scavenging activity at 2500 ug/ml; assay type: functional
[6] = test system: Staphylococcus aureus; test: Antibacterial activity against Staphylococcus aureus by agar cup-plate assay method; assay type: functional
[7] = test system: Escherichia coli; test: Antibacterial activity against Escherichia coli by agar cup-plate assay method; assay type: functional
[8] = test system: Radical scavenging activity; test: Antioxidant activity assessed as DPPH radical scavenging activity at 1500 ug/ml; assay type: functional
[9] = test system: Radical scavenging activity; test: Antioxidant activity assessed as DPPH radical scavenging activity at 50 ug/ml; assay type: functional
[10] = test system: Radical scavenging activity; test: Antioxidant activity assessed as DPPH radical scavenging activity at 30 ug/ml; assay type: functional
[11] = test system: Radical scavenging activity; test: Antioxidant activity assessed as DPPH radical scavenging activity at 40 ug/ml; assay type: functional
[12] = test system: Radical scavenging activity; test: Antioxidant activity assessed as DPPH radical scavenging activity at 20 ug/ml; assay type: functional

Compound	Activity [1] [%]	Activity [2] [%]	inhibition zone (IZ) [3]	inhibition zone (IZ) [4]	Activity [5] [%]	inhibition zone (IZ) [6]	inhibition zone (IZ) [7]	Activity [8] [%]	Activity [9] [%]	Activity [10] [%]	Activity [11] [%]	Activity [12] [%]
Clc1ccc(/C=C/c2ccc(Cl)c(Cl)c2)c(Cl)c1	49.1	46.5	inactive	Active	58	28 mm	inactive	54.2	–	–	–	–
Cc1ccc(/C=C/c2ccc(F)cc2)cc1	36.4	35.4	inactive	inactive	45.4	inactive	inactive	39.5	–	–	–	–
Clc1ccc(/C=C/c2ccc(Cl)cc2Cl)c(Cl)c1	48.7	44.6	inactive	inactive	56.4	24 mm	inactive	50.2	–	–	–	–
Fc1ccc(/C=C/c2ccc(F)cc2F)cc1	48	45.3	inactive	inactive	52.5	30 mm	inactive	50.3	–	–	–	–
Fc1ccc(/C=C/c2cccc(Cl)c2)cc1	35.6	33	inactive	Active	39.8	22 mm	inactive	37.8	–	–	–	–
Fc1ccc(/C=C/c2cccc(F)c2)cc1	42.1	40.5	inactive	Active	49.5	28 mm	inactive	47.1	–	–	–	–
Cc1ccc(/C=C/c2ccc(Cl)cc2Cl)cc1	36.4	34.8	inactive	inactive	39.1	12 mm	inactive	37.1	–	–	–	–
CC1(C)S[C@@H]2[C@H](NC(=O)Cc3ccccc3)C(=O)N2[C@H]1C(=O)O [PENICILLIN G]	–	–	–	–	–	40 mm	17 mm	–	–	–	–	–
Fc1ccc(/C=C/c2ccc(F)cc2)cc1	37.4	35.2	inactive	Active	53.8	24 mm	inactive	44.9	–	–	–	–
Fc1ccc(/C=C/c2ccc(Cl)cc2)cc1	40.8	37.4	inactive	Active	45.5	20 mm	inactive	41.6	–	–	–	–
Clc1cccc(/C=C/c2ccc(Cl)cc2Cl)c1	49.7	44.7	inactive	Active	61.4	26 mm	inactive	56.1	–	–	–	–
O=C1O[C@H]([C@@H](O)CO)C(O)=C1O	–	–	–	–	–	–	–	–	94.7	86.7	92	80.9
Clc1ccc(/C=C/c2ccc(Cl)cc2Cl)cc1	43.5	41.3	inactive	inactive	47.2	24 mm	inactive	45.7	–	–	–	–
COC1=CC(=O)C[C@@H](C)[C@]12Oc1c(Cl)c(OC)cc(OC)c1C2=O	–	–	Active	Active	–	–	–	–	–	–	–	–
Fc1ccc(/C=C/c2ccc(F)c(F)c2)cc1	44.6	43.9	inactive	inactive	48.1	36 mm	inactive	46.5	–	–	–	–
Cc1ccc(/C=C/c2ccc(C)cc2)cc1 [(E)-1,2-DI-P-TOLYLETHENE]	35.7	34.9	inactive	inactive	38	20 mm	inactive	37.1	–	–	–	–
Fc1ccc(/C=C/c2ccc(Cl)cc2Cl)cc1	37.1	35.2	inactive	Active	39.3	18 mm	inactive	37.8	–	–	–	–
